The values that follow come from patent US20250059610A1, “METHODS OF TREATING TUMOR” (priority 2017, published 2025).

For experiment [1], the system named is NSCLC with ≥50% PD-L1 expression. The following applies: first-line; cited from earlier work.
The test system of experiment [2] is recurrent small cell lung cancer (SCLC). Kind of experiment: Clinical trial of nivolumab alone or with ipilimumab in SCLC, exploratory TMB analysis. The class given is in vivo, human. From the text:
Subjects were selects who had previously been diagnosed with SCLC, and who had previously received at least one prior platinum-containing regimen (FIG. 23).
The primary objective was to measure the objective response rate (ORR) by per RECIST v1.1. Secondary objectives included monitoring safety, overall survival (OS), progression free survival (PFS), and duration of response (DOR). Prespecified exploratory objectives included biomarker analysis and health status using the EQ-5D instrument.
TMB was determined by whole exome sequencing, using an Illumina HiSeq 2500 using 2×100-bp paired-end reads, and calculated as the total number of nonsynonymous missense mutations in the tumor. For exploratory analyses, patients were divided into 3 subgroups based on TMB tertile.

On to pembrolizumab, for which, in experiment [1], the ORR is on record as 45% and the “median PFS” value is listed as 10.3 months.
For the substance “ipilimumab: fully human, IgG1 monoclonal antibody that blocks the binding of CTLA-4 to its B7 ligands”, the values for the ORR in experiment [2] (high TMB), in experiment [2] (low TMB) and in experiment [2] (medium TMB) were roughly 46.2%, roughly 22.2% and roughly 16.0%, respectively.
